# Experimental data taken from patent US9339477B2, “Antimicrobial composition” (Rohm and Haas Company, priority 2011, dated 2016).
# Tests used:
# Assay type in all cases: cell-based
# [1] = tested on: Escherichia coli (E. coli—ATCC #10536); test: Automated assessment of efficacy in surfactant base, DeltaOD in D/E quench (Example 4); settings: for MBC: in 2.85% sodium cocoyl glycinate + 1.85% sodium lauroamphoacetate solution at pH 10; for 15 second bactericidal efficacy in combination with thymol: in combination with thymol at concentrations lower than their MBC, same surfactant formulation, all 4 or 3 replicates, respectively
# Method: In these examples, the efficacy of combinations of thymol and propen-2-yl-methyl-cyclohexanols of the invention were tested in a surfactant cleansing formulation comprising 2.85% sodium cocoyl glycinate and 1.85% sodium lauroamphoacetate. This corresponds to a 50% in use dilution with water of a typical neat formulation containing 5.7% cocoyl glycinate and 3.7% % sodium lauroamphoacetate during hand washing. Solutions were prepared such that the concentrations of the surfactant components and test actives were 1.1 times the final desired concentration in order to allow for dilution with the bacterial inoculum in the test. The solutions were manually adjusted to pH 10.0 by dropwise addition of sodium hydroxide solution, as measured with a pH meter at ambient temperature. Solutions of the thymol and/or propen-2-yl-methyl-cyclohexanols of the invention were prepared at a maximum of 24 hours before testing. The same thymol and propen-2-yl-methyl-cyclohexanols were tested as in Example 1.
# The efficacy of the combinations of the present invention was determined against the same bacterium as in Example 1, Escherichia coli (E. coli—ATCC #10536), at a concentration of approximately 1×10^8 bacteria per mL.
# Tests were conducted using standard microtiter plate assays using an automated liquid handling system. 270 μl of the surfactant test solution was pipetted into each well of the microtitre plate (Nunc F Gamma Irradiated 96F untreated microtitre plates of clear polystyrene) and 30 μl of the bacterial suspension was then added. After exactly 15 seconds of bacterial exposure, a 30 μl volume of bacterial cells was withdrawn and transferred to 270 μl of D/E quench solution. After 5 minutes in the D/E quench, the optical density (OD) was measured for each plate in turn at two specific wavelengths (450 nm and 590 nm). These provide a dual check of antimicrobial activity, as the OD450 reading is specific for the yellow colour of D/E quench when bacterial growth is observed, whereas OD590 is specific for the initial purple colour of the D/E quench which is retained if no bacterial growth is observed. […] Delta OD values were calculated by subtracting […] at time=16 hours. […] To identify antibacterially efficacious systems (those preventing appreciable bacterial growth after incubation), the following threshold changes in OD readings have been adopted: if (1). OD450 increases by less than 0.2 absorbance unit (AU) on incubation and (2). […] The number of replicate wells showing either bacterial growth or no growth is also readily assessed by eye by following the colour change. […]
# In each case, binary mixtures were assessed in the weight to weight ratio of thymol to propen-2-yl-methyl-cyclohexanols of 1:2.5.
# [2] = tested on: Escherichia coli (10536 strain); test: Antimicrobial efficacy, 15 seconds contact suspension test with plate count (Examples 1 and 3); settings: for MBC (minimum biocidal concentration): Example 1 medium, lowest concentration giving complete kill after 15 seconds, upper boundary
# Method: The efficacies of antimicrobial agents can be usefully compared by determining the Minimum Biocidal Concentration (MBC). The MBC is defined as the lowest absolute concentration of the particular active that provides complete kill (zero bacterial growth).
# Antimicrobial efficacy is tested against a representative pathogenic bacterial organism, Gram negative Escherichia coli. Concentrations of actives are expressed in terms of the percentage weight/volume (% w/v) throughout Example 1.
# An overnight culture of Escherichia coli (10536 strain) was prepared in 50 ml total volume of TSB broth, grown for ca. 18 hrs at 37° C. and shaken at 150 rpm. 1 ml of this overnight E. coli culture was transferred to 50 ml of fresh TSB broth and incubated at 37° C. at 150 rpm for ca. 4 hours. This culture was separated into equal volumes and centrifuged at 4000 rpm for 15 minutes, washed with sterile saline (0.85% NaCl), centrifuged once more and re-suspended in saline to give a final concentration of 0.8 OD620 equivalent to about 10^8 cells per milliliter for this particular organism. Here, OD620 indicates the absorbance of a sample in a cuvette of 1.0 cm path length at a wavelength of 620 nm. This bacterial stock was used for assaying against antimicrobial actives (in triplicate).
# The following assay describes the testing of 8 materials using 6 dilutions across half of a 96-well micro titre plate (MTP). Using this approach it is possible to assay 16 actives (without replicates) with one full dilution plate, replicating this set up in two halves of the plate columns, 1-6 and 7-12.
# 1M solutions of the test actives were prepared in dimethylsulphoxide (DMSO).
# Aliquots (270 μl) of the materials at 1.11 times the final concentration were dispensed into the wells of the MTP along one column (A1-H1). This MTP was labelled as the “Screening plate”.
# In another MTP, labelled as the “Dilution plate”, 270 μl of D/E neutralising solution from DIFCO Composition was added to column 1. The composition of the neutralising solution was as follows: pancreatic digest of casein, 5.0 g/L; Yeast Extract, 2.5 g/L; Dextrose, 10 g/L, sodium thioglycollate, 1.0 g/L, sodium thiosulphate, 6.0 g/L; sodium bisulphite, 2.5 g/L; Polysorbate 80, 5.0 g/L; lecithin 7.0 g/L; bromocresol purple, 0.02 g/L with a pH in the range 7.6±0.2.
# 270 μl of tryptone diluent solution was added to all the remaining wells of the Dilution MTP (columns 2-6). […]
# [3] = tested on: Escherichia coli (E. coli—ATCC #10536); test: High resolution MBC synergy assay, microtiter plate, phosphate buffer containing 35% dipropylene glycol (Example 2); settings: for ΣFBC: for the Ca/Cb pair of the same table line; for MBC of component alone (MBCA, MBCB): complete kill in 15 seconds, 35% DPG phosphate buffer
# Method: The materials were sourced in the same way as for Example 1. Synergy tests were conducted using standard microtiter plate assays with phosphate buffer containing 35% dipropylene glycol (DPG). […] The MBC plate was inoculated one column at a time with the test microorganism. An aliquot of the inoculated well was transferred at 15 seconds to a plate containing a neutralizing agent (D/E Neutralizing Broth), mixed and held for 5 minutes before being transferred to a growth plate containing trypticase soy broth (TSB). The TSB plate was incubated at 37° C. and read for the presence/absence of growth at 24 hours. […] This microorganism is representative of natural contaminants in many consumer and industrial applications.
SMILES,MBC [1] [% w/v],15 second bactericidal efficacy in combination with thymol [1],MBC (minimum biocidal concentration) [2] [% w/v],ΣFBC ([3]; Table 7),"MBC of component alone (MBCA, MBCB) ([3]; Table 7 series) [weight %]",ΣFBC ([3]; Table 8),"MBC of component alone (MBCA, MBCB) ([3]; Table 8 series) [weight %]","MBC ([2]; Example 3, protocol of Example 1) [% w/v]",reduction of thymol concentration required for complete kill ([2]; combination with […] w/v 2-methyl-5-(propen-2-yl)-cyclohexanol versus thymol in isolation) [fold]
C=C(C)C1CCC(C)C(O)C1 (stereo not drawn) [2-methyl-5-(propen-2-yl)-cyclohexanol],>0.5,complete kill,0.3,1.00,0.5,,,,
"C=C(C)[C@@H]1CC[C@@H](C)C[C@H]1O [5-methyl-2-(propen-2-yl)-cyclohexanol, (1R,2S,5R)-5-methyl-2-(propen-2-yl)-cyclohexanol]",>0.5,complete kill,0.3,,,1.00,0.5,,
"C=C(C)[C@@H]1CC[C@@H](C)[C@@H](O)C1 [(1S,2R,5R)-2-methyl-5-(1-methylethenyl)-cyclohexanol]",,,,,,,,0.3,
"Cc1ccc(C(C)C)c(O)c1 [thymol, 2-isopropyl-5-methylphenol, reference compound]",,,,1.00,0.2,1.00,,,4
